Results on five compounds are retold here after patent US10414811B2, “Protease-resistant lipidated GLP-1 analogs” (MEDIMMUNE LIMITED, priority 2015, dated 2019).

Holding throughout (format): cell-based
Assay [1] addresses T1, human GLP-1 receptor (GLP-1R) (Homo sapiens, UniProt P43220).
T1 construct: expressed in transfected cells
Put plainly: cAMP assay, human GLP-1R cells. Here is the method: Sample dilutions are made in duplicate.
A frozen cryo-vial of cells expressing the receptor of interest is thawed rapidly in a water-bath, transferred to pre-warmed assay buffer and spun at 240×g for 5 minutes. Cells are re-suspended in assay buffer at a batch-dependent optimized concentration (e.g. hGCGR cells at 2×10^5 cells/ml, hGLP-1R and hGIPR cells at 1×10^5 cells/ml).
To this, 5 μL cell suspension is added and the plates incubated at room temperature for 30 minutes.
cAMP levels are measured using a commercially available cAMP dynamic 2 HTRF kit (Cisbio, Cat #62AM4PEJ), following the two step protocol as per manufacturer's recommendations. In brief; anti-cAMP cryptate (donor fluorophore) and cAMP-d2 (acceptor fluorophore) are made up separately by diluting each 1/20 in conjugate & lysis buffer provided in the kit. 5 μL anti-cAMP cryptate is added to wells of the assay plate, and 5 μL cAMP-d2 is added to wells except non-specific binding (NSB) wells, to which conjugate and lysis buffer are added. […] EC50 values of the synthetic peptides determined in cAMP assays are then determined.
Data is transformed to % Delta F as described in the manufacturer's guidelines and analyzed by 4-parameter logistic fit to determine EC50 values. […] To compare the balance of activities at the GLP-1R and GCGR between different peptides and across different conditions, these can be correlated, where the EC50's are related to those of comparator peptides.
Background: cAMP levels reflect the balance of adenylyl cyclase and phosphodiesterase activity.

In assay [2] the target is T2, human glucagon receptor (GCGR) (Homo sapiens, UniProt P47871).
T2 construct: expressed in transfected cells
T2 sequence (P47871 26-477): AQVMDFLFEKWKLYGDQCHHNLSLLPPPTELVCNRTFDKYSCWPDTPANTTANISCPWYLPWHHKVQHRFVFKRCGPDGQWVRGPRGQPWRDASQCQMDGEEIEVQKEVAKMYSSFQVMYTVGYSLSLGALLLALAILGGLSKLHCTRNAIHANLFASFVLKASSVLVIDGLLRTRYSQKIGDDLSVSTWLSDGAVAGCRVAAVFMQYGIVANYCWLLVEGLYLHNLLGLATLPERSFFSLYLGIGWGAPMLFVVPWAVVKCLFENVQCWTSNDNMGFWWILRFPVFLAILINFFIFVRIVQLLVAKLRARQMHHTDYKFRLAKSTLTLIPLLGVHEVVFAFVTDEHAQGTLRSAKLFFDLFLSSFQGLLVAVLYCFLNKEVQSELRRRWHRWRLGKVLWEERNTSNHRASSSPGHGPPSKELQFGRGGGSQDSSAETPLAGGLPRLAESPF
As to the kind of experiment: cAMP assay, human GCGR cells. In short, it runs like this:
(§1)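 Peptide-stimulated cAMP measured by two-step HTRF after a 30 min room-temperature incubation with receptor-expressing cells (hGLP-1R, hGIPR at 1×10^5 cells/ml; hGCGR at 2×10^5 cells/ml). Duplicate dilutions; EC50 from 4-parameter logistic fit of % Delta F.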

The target of assay [3] is T3, human glucose-dependent insulinotropic peptide receptor (GIPR) (Homo sapiens, UniProt P48546).
T3 construct: expressed in transfected cells
T3 sequence (P48546 22-466): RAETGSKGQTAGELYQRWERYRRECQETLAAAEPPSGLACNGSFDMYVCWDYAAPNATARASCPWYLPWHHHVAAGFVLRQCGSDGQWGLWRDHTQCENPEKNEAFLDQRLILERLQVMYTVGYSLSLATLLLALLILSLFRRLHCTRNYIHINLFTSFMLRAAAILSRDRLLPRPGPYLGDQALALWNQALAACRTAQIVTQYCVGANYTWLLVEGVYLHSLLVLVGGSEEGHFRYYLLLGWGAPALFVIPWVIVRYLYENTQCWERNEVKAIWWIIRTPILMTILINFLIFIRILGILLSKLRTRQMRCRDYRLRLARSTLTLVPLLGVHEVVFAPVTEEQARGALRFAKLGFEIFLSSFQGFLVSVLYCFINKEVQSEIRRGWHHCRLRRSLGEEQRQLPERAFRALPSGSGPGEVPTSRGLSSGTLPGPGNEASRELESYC
As to the kind of experiment: cAMP assay, human GIPR cells. In a few lines:
as §1

[4] abbreviates: mean of n1 and n2, read-out: Mean pM GLP-1R.
[5] abbreviates: cAMP assay, first determination (n1), read-out: Primary assay EC50 GLP-1R n1.
Setting [6] is: cAMP assay, second determination (n2), read-out: Primary assay EC50 GLP-1R n2.
The mark [7] stands for this setting: cAMP assay, first determination (n1), read-out: Primary assay EC50 Gluc-R (n1).
Setting [8] is: cAMP assay, second determination (n2), read-out: Primary assay EC50 Gluc-R (n2).
Where [9] appears, read: cAMP assay, first determination (n1), read-out: Primary assay EC50 GIP-R (n1).
Where [10] appears, read: cAMP assay, second determination (n2), read-out: Primary assay EC50 GIP-R (n2).

Structures are written as SMILES. Where two headings read alike, the source gives them in different places. Numbered stars: 1 amine (or outer) side, 2 acyl side, 3 side chain; on linkers, the order of the positions; unused ones are H or OH. Square brackets hold non-standard residues; d marks the D form. Side chains are listed from the residue outwards. Peptide text beside a SMILES is read from it. * marks the point of attachment. γGlu = O=C(O)[C@H](CCC(=O)[*:2])N[*:1]; Palmitoyl = CCCCCCCCCCCCCCCC(=O)*; αMeF = C[C@](N)(Cc1ccccc1)C(=O)O; αMeK = C[C@](N)(CCCCN)C(=O)O; Lauroyl = CCCCCCCCCCCC(=O)*; αMeS = C[C@](N)(CO)C(=O)O; AEEA = NCCOCCOCC(=O)O; Aib = CC(C)(N)C(=O)O

T1 sequence (P43220 24-463): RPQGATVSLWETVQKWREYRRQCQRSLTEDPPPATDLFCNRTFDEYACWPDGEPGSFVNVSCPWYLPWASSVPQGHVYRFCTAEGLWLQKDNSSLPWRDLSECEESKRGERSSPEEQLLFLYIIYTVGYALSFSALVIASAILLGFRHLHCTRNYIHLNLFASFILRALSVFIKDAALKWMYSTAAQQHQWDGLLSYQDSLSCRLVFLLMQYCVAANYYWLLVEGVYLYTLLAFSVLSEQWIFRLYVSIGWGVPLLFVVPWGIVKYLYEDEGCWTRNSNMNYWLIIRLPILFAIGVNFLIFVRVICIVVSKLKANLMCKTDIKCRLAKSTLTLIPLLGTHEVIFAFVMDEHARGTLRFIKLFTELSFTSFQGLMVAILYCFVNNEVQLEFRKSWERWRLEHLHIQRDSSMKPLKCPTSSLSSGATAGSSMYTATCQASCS

Consider `CC[C@H](C)[C@H](NC(=O)[C@](C)(Cc1ccccc1)NC(=O)[C@H](CCC(=O)O)NC(=O)[C@](C)(CCCCN)NC(=O)[C@H](C)NC(=O)[C@H](C)NC(=O)[C@H](CCC(=O)O)NC(=O)CNC(=O)[C@H](CCC(=O)O)NC(=O)[C@H](CC(C)C)NC(=O)[C@](C)(Cc1ccccc1)NC(=O)[C@H](CO)NC(=O)[C@](C)(CO)NC(=O)[C@@H](NC(=O)[C@H](CC(=O)O)NC(=O)[C@H](CO)NC(=O)[C@@H](NC(=O)[C@](C)(Cc1ccccc1)NC(=O)[C@H](CO)NC(=O)CNC(=O)[C@H](CCC(=O)O)NC(=O)C(C)(C)NC(=O)[C@@H](N)Cc1c[nH]cn1)[C@@H](C)O)C(C)C)C(=O)N[C@@H](C)C(=O)N[C@@](C)(Cc1ccccc1)C(=O)N[C@H](C(=O)N[C@H](C(=O)N[C@@H](CCCCNC(=O)CCCCCNC(=O)CCCCCCCCCCCCCCCCC(=O)O)C(=O)NCC(=O)NCC(N)=O)C(C)C)C(C)C` [compound 194], for which the EC50 in assay [1] (first run (n1), cAMP activity, read-out: Primary assay EC50 GLP-1R n1) is 240 pM; in assay [1] (setting [4]), 154 pM; in assay [1] (second run (n2), cAMP activity, read-out: Primary assay EC50 GLP-1R n2), 68 pM; in assay [2] (first run (n1), cAMP activity of substituted and mono-lipidated peptides, read-out: Primary assay EC50 Gluc-R), not below 28 nM; in assay [2] (second run (n2), cAMP activity, read-out: Primary assay EC50 Gluc-R) it was not below 28 nM; in assay [3] (first run (n1), cAMP activity, read-out: Primary assay EC50 GIP-R), not below 28 nM. For the same compound, the EC50 in assay [3] (second run (n2), cAMP activity, read-out: Primary assay EC50 GIP-R) was not below 28 nM.
Regarding `CCCCCCCCCCCCCCCC(=O)N[C@@H](CCC(=O)NCCCC[C@H](NC(=O)[C@H](CC(C)C)NC(=O)[C@](C)(Cc1ccccc1)NC(=O)[C@H](CO)NC(=O)[C@](C)(CO)NC(=O)[C@@H](NC(=O)[C@H](CC(=O)O)NC(=O)[C@H](CO)NC(=O)[C@@H](NC(=O)[C@](C)(Cc1ccccc1)NC(=O)[C@H](CO)NC(=O)CNC(=O)[C@H](CCC(=O)O)NC(=O)C(C)(C)NC(=O)[C@@H](N)Cc1c[nH]cn1)[C@@H](C)O)C(C)C)C(=O)NCC(=O)N[C@@H](CCC(=O)O)C(=O)N[C@@H](C)C(=O)N[C@@H](C)C(=O)N[C@@](C)(CCCCN)C(=O)N[C@@H](CCC(=O)O)C(=O)N[C@@](C)(Cc1ccccc1)C(=O)N[C@H](C(=O)N[C@@H](C)C(=O)N[C@@](C)(Cc1ccccc1)C(=O)N[C@H](C(=O)N[C@H](C(=O)N[C@@](C)(CCCCN)C(=O)NCC(=O)NCC(N)=O)C(C)C)C(C)C)[C@@H](C)CC)C(=O)O` [compound 85] (H-H[Aib]EGS[αMeF]TSDV[αMeS]S[αMeF]LK([γGlu-Palmitoyl])GEAA[αMeK]E[αMeF]IA[αMeF]VV[αMeK]GG-NH2; N-terminus assumed), the EC50 is 66 pM in assay [1] (setting [5]); 140 pM in assay [1] (setting [6]); 101 pM in assay [1] (setting [4]); not below 28 nM in assay [2] (setting [7]); not below 28 nM in assay [2] (setting [8]); not below 28 nM in assay [3] (setting [9]). Further, the EC50 in assay [3] (setting [10]) was not below 28 nM.
Regarding `CCCCCCCCCCCCCCCCCC(=O)NCCCCCC(=O)NCCCCCC(=O)NCCCCCC(=O)NCCCC[C@H](NC(=O)[C@@H](NC(=O)[C@@H](NC(=O)[C@](C)(Cc1ccccc1)NC(=O)[C@H](C)NC(=O)[C@@H](NC(=O)[C@](C)(Cc1ccccc1)NC(=O)[C@H](CCC(=O)O)NC(=O)[C@](C)(CCCCN)NC(=O)[C@H](C)NC(=O)[C@H](C)NC(=O)[C@H](CCC(=O)O)NC(=O)CNC(=O)[C@H](CCC(=O)O)NC(=O)[C@H](CC(C)C)NC(=O)[C@](C)(Cc1ccccc1)NC(=O)[C@H](CO)NC(=O)[C@](C)(CO)NC(=O)[C@@H](NC(=O)[C@H](CC(=O)O)NC(=O)[C@H](CO)NC(=O)[C@@H](NC(=O)[C@](C)(Cc1ccccc1)NC(=O)[C@H](CO)NC(=O)CNC(=O)[C@H](CCC(=O)O)NC(=O)C(C)(C)NC(=O)[C@@H](N)Cc1c[nH]cn1)[C@@H](C)O)C(C)C)[C@@H](C)CC)C(C)C)C(C)C)C(=O)NCC(=O)NCC(N)=O` [compound 187], the EC50 in assay [1] (setting [5]) is 64 pM; in assay [1] (setting [6]) it was 31 pM; in assay [1] (setting [4]), 47.4 pM; in assay [2] (setting [7]), not below 26 nM; in assay [2] (setting [8]), not below 26 nM; in assay [3] (setting [9]), not below 26 nM. The EC50 in assay [3] (setting [10]) was not below 26 nM.
As to `CC[C@H](C)[C@H](NC(=O)[C@H](CO)NC(=O)[C@](C)(Cc1ccccc1)NC(=O)[C@H](CC(=O)O)NC(=O)[C@H](CO)NC(=O)[C@@H](NC(=O)[C@](C)(Cc1ccccc1)NC(=O)[C@H](CO)NC(=O)CNC(=O)[C@H](CCC(=O)O)NC(=O)C(C)(C)NC(=O)[C@@H](N)Cc1ccc(O)cc1)[C@@H](C)CC)C(=O)N[C@@H](C)C(=O)N[C@@H](CCSC)C(=O)N[C@@H](CC(=O)O)C(=O)N[C@@H](CCCCN)C(=O)N[C@H](C(=O)N[C@@H](Cc1c[nH]cn1)C(=O)N[C@@H](CCC(N)=O)C(=O)N[C@@H](CCC(N)=O)C(=O)N[C@@H](CC(=O)O)C(=O)N[C@@](C)(Cc1ccccc1)C(=O)N[C@H](C(=O)N[C@@H](CC(N)=O)C(=O)N[C@@](C)(Cc1ccccc1)C(=O)N[C@@H](CC(C)C)C(=O)N[C@@H](CC(C)C)C(=O)N[C@@H](C)C(=O)N[C@@H](CCC(N)=O)C(=O)N[C@@H](CCCCN)C(N)=O)C(C)C)[C@@H](C)CC` [compound 15] (H-Y[Aib]EGS[αMeF]ISD[αMeF]SIAMDKIHQQD[αMeF]VN[αMeF]LLAQK-NH2; N-terminus assumed), the EC50 in assay [1] (setting [5]) was 120000 pM; in assay [1] (setting [6]), 120000 pM; in assay [1] (setting [4]) it was 119000 pM; in assay [2] (setting [7]), 120 nM; in assay [2] (setting [8]), 120 nM; in assay [3] (setting [9]) it was 0.16 nM. Besides, in assay [3] (setting [10]), the EC50 was 0.079 nM.
With `CCCCCCCCCCCC(=O)N[C@@H](CCC(=O)NCCOCCOCC(=O)NCCOCCOCC(=O)NCCCC[C@H](NC(=O)CNC(=O)[C@H](CCC(=O)O)NC(=O)[C@H](CC(C)C)NC(=O)[C@H](CCCCNC(=O)COCCOCCNC(=O)COCCOCCNC(=O)CC[C@H](NC(=O)CCCCCCCCCCC)C(=O)O)NC(=O)[C@H](CO)NC(=O)[C@](C)(CO)NC(=O)[C@@H](NC(=O)[C@H](CC(=O)O)NC(=O)[C@H](CO)NC(=O)[C@@H](NC(=O)[C@](C)(Cc1ccccc1)NC(=O)[C@H](CO)NC(=O)CNC(=O)[C@H](CCC(=O)O)NC(=O)C(C)(C)NC(=O)[C@@H](N)Cc1c[nH]cn1)[C@@H](C)O)C(C)C)C(=O)N[C@@H](C)C(=O)N[C@@H](C)C(=O)N[C@@](C)(CCCCN)C(=O)N[C@@H](CCC(=O)O)C(=O)N[C@@H](Cc1ccccc1)C(=O)N[C@H](C(=O)N[C@@H](CCCCNC(=O)COCCOCCNC(=O)COCCOCCNC(=O)CC[C@H](NC(=O)CCCCCCCCCCC)C(=O)O)C(=O)N[C@@H](Cc1ccccc1)C(=O)N[C@H](C(=O)N[C@H](C(=O)N[C@@H](CCC(=O)O)C(=O)NCC(=O)NCC(N)=O)C(C)C)C(C)C)[C@@H](C)CC)C(=O)O` [compound 448] (H-H[Aib]EGS[αMeF]TSDV[αMeS]SK([AEEA-AEEA-γGlu-Lauroyl])LEGK([AEEA-AEEA-γGlu-Lauroyl])AA[αMeK]EFIK([AEEA-AEEA-γGlu-Lauroyl])FVVEGG-NH2), the EC50 in assay [1] (tris-lipidated peptides, mean of n1 and n2, read-out: Primary assay EC50 Mean pM GLP-1R) is 92.4 pM; in assay [1] (tris-lipidated peptides, replicate n1, read-out: Primary assay EC50 GLP-1R n1) it was 78.8 pM; in assay [1] (tris-lipidated peptides, replicate n2, read-out: Primary assay EC50 GLP-1R n2) it was 106 pM; in assay [2] (tris-lipidated peptides, second replicate, read-out: Primary assay EC50 Gluc-R (n2)), 19.9 nM; in assay [3] (tris-lipidated peptides, first replicate, read-out: Primary assay EC50 GIP-R (n1)), 19.9 nM.
